According to ChEMBL document CHEMBL3217735, “Polyamine-based small molecule epigenetic modulators” (Medchemcomm, 2012):

Legend:
[1] = target: Histone deacetylase (Homo sapiens) (UniProt Q13547+O15379+Q9UBN7+Q92769+Q9UQL6+Q8WUI4+Q9BY41+Q96DB2+P56524+Q9UKV0+Q969S8); experiment: Inhibition of HDAC in human HeLa cells using Fluor de Lys as substrate at 1 uM by fluorescence assay relative to control; assay type: cell-based
[2] = target: Lysine-specific histone demethylase 1A (Homo sapiens) (UniProt O60341); experiment: Inhibition of N-terminal His6-tagged full length human LSD1 expressed in Escherichia coli BL21 (DE3) using H3K4me2 (1 to 21 amino acids) as substrate assessed as production of H2O2 at 1 uM by luminol-dependent chemiluminescence assay relative to control
MCF7 = experiment: Cytotoxicity against human MCF7 cells after 96 hrs by MTA reduction assay; assay type: functional, cell-based; conditions: MCF7, 96 h
[3] = Cytotoxicity against human MCF10A cells after 96 hrs by MTA reduction assay; assay type: ADME, cell-based; conditions: MCF-10A
[4] = Selectivity ratio of IC50 for human MCF10A cells to IC50 for human MCF7 cells; assay type: ADME, cell-based, MCF-10A; conditions: MCF10A cells versus MCF7 cells, read-out: Ratio IC50

Question: With `CN(C)c1ccc(CN(CCCNCCCCN)C(=O)CCCCC(=O)NO)cc1` as the molecule, how does the inhibition [1] read?
Answer: The inhibition was 60%.

Question: For `C/N=C(\NC)NCCCNCCCNCCCN/C(=N/C)NC`, which inhibition [2] is on record?
Answer: The inhibition was 85.1%.

Question: With `Cc1ccc(CNCCCCNCCCCCC(=O)NCc2ccc(C(=O)Nc3ccccc3N)cc2)cc1` as the molecule, how does the IC50 (MCF7) read?
Answer: The IC50 was 900 nM.

Question: What about the IC50 [3] of the same molecule?
Answer: Its IC50 is 24 µM.

Question: What about the selectivity ratio [4] of the same molecule?
Answer: The selectivity ratio was over 25.
